# From patent US9346798B2, “Dihydrobenzoxazine and tetrahydroquinoxaline sodium channel inhibitors” (AMGEN INC., priority 2012, dated 2016)
# pIC50: −log10 of the molar value.
# Target: Nav 1.7 (Homo sapiens (Human), UniProt Q15858)
# Test: Nav 1.7 in vitro PX assay, PatchXpress whole cell voltage clamp
# Format: cell-based
# Conditions: HEK293; values marked *; 4.9 μM; HEK 293 cells stably transfected with human Nav1.7; read-out: Nav 1.7 PX percent inhibition at 4.9 μM
# Protocol: Nav 1.7 In Vitro PX Assay
# HEK 293 cells stably transfected with human Nav1.7 were recorded in whole cell voltage clamp mode with the PatchXpress automated electrophysiology system (Molecular Devices, LLC, Sunnyvale, Calif.). Compound effects were measured on a partially inactivated state of the sodium channel. Cells were clamped to a holding potential yielding 20 to 50% inactivation. To elicit sodium current, channels were activated by pulsing to −10 mV for 20 msec. This voltage protocol was repeated at a rate of 0.1 Hz throughout the experiment. A single concentration of test compound was applied to cells for a duration of 3 minutes. Peak sodium current was measured at the end of the compound addition period to determine percent inhibition. Three to five cells were tested per concentration, and IC50 curves were fitted to percent inhibition as a function of concentration.
# Sequence of Nav 1.7 (Q15858 whole entry): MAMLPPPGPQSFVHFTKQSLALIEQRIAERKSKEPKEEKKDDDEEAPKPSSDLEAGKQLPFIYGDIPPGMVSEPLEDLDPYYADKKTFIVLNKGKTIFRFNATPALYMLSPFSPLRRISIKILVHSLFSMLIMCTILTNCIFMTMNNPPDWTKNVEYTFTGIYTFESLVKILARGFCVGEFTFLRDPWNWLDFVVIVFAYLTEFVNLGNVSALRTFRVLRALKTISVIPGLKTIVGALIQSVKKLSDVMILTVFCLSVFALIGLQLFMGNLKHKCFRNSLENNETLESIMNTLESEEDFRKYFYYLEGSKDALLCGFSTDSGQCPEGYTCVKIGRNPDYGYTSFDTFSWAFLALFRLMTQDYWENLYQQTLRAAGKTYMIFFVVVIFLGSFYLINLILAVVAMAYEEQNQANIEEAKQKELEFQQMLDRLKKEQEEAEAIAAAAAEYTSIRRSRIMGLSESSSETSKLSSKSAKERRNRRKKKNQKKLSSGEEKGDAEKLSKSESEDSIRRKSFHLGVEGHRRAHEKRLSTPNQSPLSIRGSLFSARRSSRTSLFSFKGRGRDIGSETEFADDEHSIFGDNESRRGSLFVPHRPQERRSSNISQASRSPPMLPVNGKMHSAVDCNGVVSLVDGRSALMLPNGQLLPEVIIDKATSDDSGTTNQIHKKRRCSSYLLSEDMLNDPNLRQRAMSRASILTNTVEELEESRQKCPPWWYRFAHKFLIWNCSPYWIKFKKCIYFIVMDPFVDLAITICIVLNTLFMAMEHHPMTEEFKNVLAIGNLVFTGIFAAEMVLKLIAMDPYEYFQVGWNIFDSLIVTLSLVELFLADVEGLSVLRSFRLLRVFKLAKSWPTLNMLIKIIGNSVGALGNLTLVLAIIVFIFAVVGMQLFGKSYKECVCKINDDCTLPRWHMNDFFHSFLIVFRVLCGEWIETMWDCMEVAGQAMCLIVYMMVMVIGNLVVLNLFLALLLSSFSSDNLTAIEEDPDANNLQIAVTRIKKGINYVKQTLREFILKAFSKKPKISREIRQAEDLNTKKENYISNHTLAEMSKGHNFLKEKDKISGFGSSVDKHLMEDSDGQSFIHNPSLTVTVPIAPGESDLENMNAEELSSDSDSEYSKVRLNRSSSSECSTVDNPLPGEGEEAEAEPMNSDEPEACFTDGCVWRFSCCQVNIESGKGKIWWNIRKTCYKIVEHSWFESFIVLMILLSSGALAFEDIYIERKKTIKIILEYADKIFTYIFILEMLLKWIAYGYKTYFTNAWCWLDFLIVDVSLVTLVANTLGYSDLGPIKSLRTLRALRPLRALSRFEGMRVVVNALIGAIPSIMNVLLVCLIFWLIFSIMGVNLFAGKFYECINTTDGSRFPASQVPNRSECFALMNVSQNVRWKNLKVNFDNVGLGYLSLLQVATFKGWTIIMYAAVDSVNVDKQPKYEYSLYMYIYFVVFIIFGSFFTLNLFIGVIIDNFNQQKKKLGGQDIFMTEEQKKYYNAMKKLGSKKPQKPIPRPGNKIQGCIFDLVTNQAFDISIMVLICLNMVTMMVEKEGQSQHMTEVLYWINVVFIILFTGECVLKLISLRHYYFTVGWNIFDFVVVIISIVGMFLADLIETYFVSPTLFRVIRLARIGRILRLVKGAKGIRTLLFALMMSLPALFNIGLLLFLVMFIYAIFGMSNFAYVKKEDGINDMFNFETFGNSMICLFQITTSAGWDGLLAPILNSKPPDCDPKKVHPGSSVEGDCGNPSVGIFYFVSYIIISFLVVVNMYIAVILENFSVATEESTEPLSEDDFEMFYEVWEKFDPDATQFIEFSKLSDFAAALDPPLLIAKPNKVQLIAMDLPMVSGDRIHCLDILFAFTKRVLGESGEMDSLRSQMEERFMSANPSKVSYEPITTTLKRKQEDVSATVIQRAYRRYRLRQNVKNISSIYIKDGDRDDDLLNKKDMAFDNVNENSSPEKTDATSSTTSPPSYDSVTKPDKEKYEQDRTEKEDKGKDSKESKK
row,inhibition at 4.9 µM [%],SMILES
1,27,"CC(C)(O)COc1ccccc1N1CCOc2cc(S(=O)(=O)Nc3nccs3)ccc21 [Example 253, 4-(2-(2-hydroxy-2-methylpropoxy)phenyl)-N-(thiazol-2-yl)-3,4-dihydro-2H-benzo[b][1,4]oxazine-7-sulfonamide]"
2,27.8,"COCC1CN(c2ccc(Cl)cc2C#N)c2ccc(S(=O)(=O)Nc3nccs3)cc2O1 (centres unmarked) [Example 251, 4-(4-chloro-2-cyanophenyl)-2-(methoxymethyl)-N-(thiazol-2-yl)-3,4-dihydro-2H-benzo[b][1,4]oxazine-7-sulfonamide]"

# Same assay, conditions: HEK 293 cells stably transfected with human Nav1.7; partially inactivated state (20 to 50% inactivation)
row,pIC50,SMILES
1,5.47,"O=C1COc2cc(S(=O)(=O)Nc3nccs3)ccc2N1c1ccc(C(F)(F)F)cc1CO [Example 262, 4-(2-(hydroxymethyl)-4-(trifluoromethyl)phenyl)-3-oxo-N-(thiazol-2-yl)-3,4-dihydro-2H-benzo[b][1,4]oxazine-7-sulfonamide]"
2,5.30,"NC(=O)c1ccccc1N1CCOc2cc(S(=O)(=O)Nc3nccs3)ccc21 [Example 244, 2-(7-(N-(Thiazol-2-Yl)Sulfamoyl)-2H-Benzo[B][1,4]Oxazin-4(3H)-Yl)Benzamide]"
3,6.39,"N#CCOc1ccccc1N1CCOc2cc(S(=O)(=O)Nc3nccs3)ccc21 [Example 257, 4-(2-(cyanomethoxy)phenyl)-N-(thiazol-2-yl)-3,4-dihydro-2H-benzo[b][1,4]oxazine-7-sulfonamide]"
4,5.62,"C=C(C)c1ccccc1N1CCOc2cc(S(=O)(=O)Nc3nccs3)ccc21 [Example 254, 4-(2-(prop-1-en-2-yl)phenyl)-N-(thiazol-2-yl)-3,4-dihydro-2H-benzo[b][1,4]oxazine-7-sulfonamide]"
5,5.65,"O=S(=O)(Nc1nccs1)c1ccc2c(c1)OCCN2c1ccccc1Oc1ccncc1 [Example 260, 4-(2-(pyridin-4-yloxy)phenyl)-N-(thiazol-2-yl)-3,4-dihydro-2H-benzo[b][1,4]oxazine-7-sulfonamide]"
6,6.22,"COc1cc(C(F)(F)F)ccc1N1C(=O)[C@H](C)Oc2cc(S(=O)(=O)Nc3nccs3)ccc21 [Example 264, (S)-4-(2-methoxy-4-(trifluoromethyl)phenyl)-2-methyl-3-oxo-N-(thiazol-2-yl)-3,4-dihydro-2H-benzo[b][1,4]oxazine-7-sulfonamide]"
7,5.80,"CCc1ccccc1N1CCOc2cc(S(=O)(=O)Nc3nccs3)ccc21 [Example 259, 4-(2-ethylphenyl)-N-(thiazol-2-yl)-3,4-dihydro-2H-benzo[b][1,4]oxazine-7-sulfonamide]"
8,6.32,"O=C1COc2cc(S(=O)(=O)Nc3nccs3)ccc2N1c1ccc(C(F)(F)F)cc1Cl [Example 241, 4-(2-Chloro-4-(Trifluoromethyl)Phenyl)-3-Oxo-N-(Thiazol-2-Yl)-3,4-Dihydro-2H-Benzo[B][1,4]Oxazine-7-Sulfonamide]"
9,6.01,"O=S(=O)(Nc1nccs1)c1ccc2c(c1)OCCN2c1ccccc1-c1ccc(O)nc1 [Example 255, 4-(2-(6-hydroxypyridin-3-yl)phenyl)-N-(thiazol-2-yl)-3,4-dihydro-2H-benzo[b][1,4]oxazine-7-sulfonamide 2,2,2-trifluoroacetate]"
10,6.87,"COc1ccccc1N1CCOc2cc(S(=O)(=O)Nc3ncns3)ccc21 [Example 238, 4-(2-Methoxyphenyl)-N-(1,2,4-Thiadiazol-5-Yl)-3,4-Dihydro-2H-Benzo[B][1,4]Oxazine-7-Sulfonamide]"
11,4.92,"O=C1COc2cc(S(=O)(=O)Nc3nccs3)ccc2N1c1ccc(C(F)(F)F)cc1F [Example 240, 4-(2-Fluoro-4-(Trifluoromethyl)Phenyl)-3-Oxo-N-(Thiazol-2-Yl)-3,4-Dihydro-2H-Benzo[B][1,4]Oxazine-7-Sulfonamide]"
12,6.52,"COc1ccc(C#N)cc1N1CCOc2cc(S(=O)(=O)Nc3nccs3)ccc21 [Example 225, 4-(5-Cyano-2-Methoxyphenyl)-N-(Thiazol-2-Yl)-3,4-Dihydro-2H-Benzo[B][1,4]Oxazine-7-Sulfonamide]"
13,6.49,"COc1cc(Cl)ccc1N1C(=O)COc2cc(S(=O)(=O)Nc3nccs3)ccc21 [Example 233, 4-(4-Chloro-2-Methoxyphenyl)-3-Oxo-N-(Thiazol-2-Yl)-3,4-Dihydro-2H-Benzo[B][1,4]Oxazine-7-Sulfonamide]"
14,4.47,"CS(=O)(=O)c1ccccc1N1CCOc2cc(S(=O)(=O)Nc3nccs3)ccc21 [Example 230, 4-(2-(Methylsulfonyl)Phenyl)-N-(Thiazol-2-Yl)-3,4-Dihydro-2H-Benzo[B][1,4]Oxazine-7-Sulfonamide]"
15,6.34,"COc1cc(C(F)(F)F)ccc1N1C(=O)C(C)Oc2cc(S(=O)(=O)Nc3nccs3)ccc21 (racemic) [Example 263, (+/−)-4-(2-methoxy-4-(trifluoromethyl)phenyl)-2-methyl-3-oxo-N-(thiazol-2-yl)-3,4-dihydro-2H-benzo[b][1,4]oxazine-7-sulfonamide]"
16,5.24,"CC(O)c1ccccc1N1C(=O)COc2cc(S(=O)(=O)Nc3nccs3)ccc21 (centres unmarked) [Example 242, 4-(2-(1-Hydroxyethyl)Phenyl)-3-Oxo-N-(Thiazol-2-Yl)-3,4-Dihydro-2H-Benzo[B][1,4]Oxazine-7-Sulfonamide]"
17,6.14,"COc1cc(C(F)(F)F)ccc1N1C(=O)[C@@H](C)Oc2cc(S(=O)(=O)Nc3nccs3)ccc21 [Example 265, (R)-4-(2-Methoxy-4-(Trifluoromethyl)Phenyl)-2-Methyl-3-Oxo-N-(Thiazol-2-Yl)-3,4-Dihydro-2H-Benzo[B][1,4]Oxazine-7-Sulfonamide]"
18,4.70,"O=S(=O)(Nc1nccs1)c1ccc2c(c1)OCCN2c1ccccc1-c1cncnc1 [Example 231, 4-(2-(Pyrimidin-5-Yl)Phenyl)-N-(Thiazol-2-Yl)-3,4-Dihydro-2H-Benzo[B][1,4]Oxazine-7-Sulfonamide]"
19,6.27,"COc1ccc(F)cc1N1C(=O)COc2cc(S(=O)(=O)Nc3nccs3)ccc21 [Example 246, 4-(5-Fluoro-2-Methoxyphenyl)-3-Oxo-N-(Thiazol-2-Yl)-3,4-Dihydro-2H-Benzo[B][1,4]Oxazine-7-Sulfonamide]"
20,5.25,"COc1cc(C(F)(F)F)ccc1N1C(=O)C(C)(C)Oc2cc(S(=O)(=O)Nc3nccs3)ccc21 [Example 266, 4-(2-Methoxy-4-(Trifluoromethyl)Phenyl)-2,2-Dimethyl-3-Oxo-N-(Thiazol-2-Yl)-3,4-Dihydro-2H-Benzo[B][1,4]Oxazine-7-Sulfonamide]"
21,5.84,"N#Cc1cc(C(F)(F)F)ccc1N1C(=O)COc2cc(S(=O)(=O)Nc3nccs3)ccc21 [Example 234, 4-(2-Cyano-4-(Trifluoromethyl)Phenyl)-3-Oxo-N-(Thiazol-2-Yl)-3,4-Dihydro-2H-Benzo[B][1,4]Oxazine-7-Sulfonamide]"
22,6.05,"COc1ccccc1N1C(=O)COc2cc(S(=O)(=O)Nc3nccs3)ccc21 [Example 235, 4-(2-Methoxyphenyl)-3-Oxo-N-(Thiazol-2-Yl)-3,4-Dihydro-2H-Benzo[B][1,4]Oxazine-7-Sulfonamide]"

row,SMILES,pIC50
1,"COCCOc1ccccc1N1CCOc2cc(S(=O)(=O)Nc3nccs3)ccc21 [Example 229, 4-(2-(2-Methoxyethoxy)Phenyl)-N-(Thiazol-2-Yl)-3,4-Dihydro-2H-Benzo[B][1,4]Oxazine-7-Sulfonamide]",5.50
2,"COc1cc(C(F)(F)F)ccc1N1CCOc2cc(S(=O)(=O)Nc3nccs3)c(C#N)cc21 [Example 213, 6-Cyano-4-(2-Methoxy-4-(Trifluoromethyl)Phenyl)-N-(Thiazol-2-Yl)-3,4-Dihydro-2H-Benzo[B][1,4]Oxazine-7-Sulfonamide]",6.34
